From PubChem BioAssay (NCI)
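Grown in 96-well plates, cells were treated for 48 hours with each compound at five concentrations. Insufficient inhibition: endpoint recorded as highest concentration tested. GI50 is the concentration that inhibits growth by half. TGI is the concentration that stops growth completely.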

Columns and labels:
Assay in all cases: DTP human tumour cell line panel, 48 h
HL-60(TB) leukemia = tested on: HL-60(TB) leukemia
HOP-62 NSCLC = tested on: HOP-62 NSCLC
NCI-H522 lung = tested on: NCI-H522 lung
RPMI-8226 leukemia = tested on: RPMI-8226 leukemia
SF-268 CNS = tested on: SF-268 CNS
SK-MEL-28 melanoma = tested on: SK-MEL-28 melanoma
SK-MEL-5 melanoma = tested on: SK-MEL-5 melanoma
T-47D breast = tested on: T-47D breast
UACC-257 melanoma = tested on: UACC-257 melanoma
UACC-62 melanoma = tested on: UACC-62 melanoma

Row | Structure (SMILES) | TGI (HL-60(TB) leukemia) | TGI (HOP-62 NSCLC) | TGI (NCI-H522 lung) | TGI (RPMI-8226 leukemia) | TGI (SF-268 CNS) | TGI (SK-MEL-28 melanoma) | TGI (SK-MEL-5 melanoma) | TGI (T-47D breast) | TGI (UACC-257 melanoma) | TGI (UACC-62 melanoma) | GI50 (HL-60(TB) leukemia) | GI50 (HOP-62 NSCLC) | GI50 (NCI-H522 lung) | GI50 (RPMI-8226 leukemia) | GI50 (SF-268 CNS) | GI50 (SK-MEL-28 melanoma) | GI50 (SK-MEL-5 melanoma) | GI50 (T-47D breast) | GI50 (UACC-257 melanoma) | GI50 (UACC-62 melanoma)
1 | CC(=O)NNc1nc(C)c(C(/C=C/c2ccccc2O)=N/N=C(N)N)s1 | > 100 µM | > 100 µM | > 100 µM | > 100 µM | > 100 µM | > 100 µM | > 100 µM | > 100 µM | > 100 µM | > 100 µM | – | – | – | – | – | – | – | – | – | –
2 | Nc1nc(/C=C\c2ccccc2)nc(N2CCN(c3ccccc3)CC2)n1 | 66.3 µM | 86.3 µM | 84.9 µM | > 100 µM | > 100 µM | 79.6 µM | 45 µM | 41.9 µM | 68.5 µM | 91.6 µM | 25.4 µM | 23.9 µM | 28.2 µM | 25.9 µM | 42.2 µM | 30.9 µM | 21.1 µM | 11.6 µM | 29.1 µM | 26 µM
3 | Cc1cc(Nc2cc(N3CCN(C)CC3)nc(/C=C/c3ccccc3)n2)n[nH]1 | 2.57 µM | > 3.98 µM | > 2.19 µM | > 3.14 µM | > 4.08 µM | > 5.48 µM | > 4.15 µM | > 9.46 µM | > 5.32 µM | > 3.51 µM | 0.32 µM | 0.768 µM | 0.336 µM | 1.69 µM | 0.845 µM | 1.41 µM | > 2.11 µM | 1.77 µM | 1.98 µM | 1.07 µM
4 | Oc1c(Cl)cc(Cl)c2ccc(Cn3cc(-c4ccc(C(F)(F)F)cc4)nn3)nc12 | 3.65 µM | 35.2 µM | 3.79 µM | 6.33 µM | 20.1 µM | 3.76 µM | 11.4 µM | 5.59 µM | 3.3 µM | 11.9 µM | 0.685 µM | 16.4 µM | 1.42 µM | 1.25 µM | 4.64 µM | 1.78 µM | 3.07 µM | 1.88 µM | 1.23 µM | 2.61 µM
5 | N#Cc1cnc(Nc2cc(NC[C@H]3CNCCO3)c(C(F)(F)F)cn2)cn1 | 15.4 µM | 36.8 µM | 34.9 µM | 56.3 µM | 47.5 µM | 46.5 µM | 21.6 µM | 51.5 µM | 45.8 µM | 25.1 µM | 2.15 µM | 6.54 µM | 13.1 µM | 15.7 µM | 16.2 µM | 16.3 µM | 9.3 µM | 16.6 µM | 19.3 µM | 5.17 µM
6 | COc1cccc(Nc2nc3ccccc3c3occc23)c1 | > 100 µM | 39 µM | 27 µM | > 100 µM | 34.1 µM | 29.9 µM | 20.9 µM | 22.8 µM | 26.8 µM | 24.6 µM | 45 µM | 15 µM | 9.3 µM | 15.9 µM | 13.9 µM | 14.5 µM | 6.16 µM | 4.1 µM | 13.2 µM | 9.37 µM
7 | CCCCCCCCCCCCOC1C(CNC(=O)C2OC3OC(C)(C)OC3C2NC(=O)CN2CCN(c3ccc(OC)cc3)CC2)OC2OC(C)(C)OC21 (stereo not drawn) | 4.44 µM | 20.5 µM | 17.4 µM | 4.73 µM | 11.5 µM | 23.3 µM | 16.1 µM | 23.4 µM | 12.7 µM | 18.3 µM | 2.13 µM | 5.07 µM | 4.92 µM | 2.13 µM | 3.12 µM | 5.86 µM | 4.39 µM | 4.33 µM | 3.83 µM | 5.44 µM
8 | CCOc1ccn(-c2ccc(F)cc2)c(=O)c1C(=O)Nc1ccc(Oc2ccnc(N)c2Cl)c(F)c1 | 38.6 µM | > 100 µM | 69.5 µM | > 88.8 µM | > 100 µM | 59.1 µM | 25.5 µM | 98 µM | 43.4 µM | 18.5 µM | 15.3 µM | 13.2 µM | 12.3 µM | 14.6 µM | 10.9 µM | 6.7 µM | 9.99 µM | 11.8 µM | 5.99 µM | 2.83 µM
9 | CC(=O)[C@H]1CCC/C=C/[C@@H]2C[C@H](O)C[C@H]2[C@H](O)/C=C/C(=O)O1 | 0.712 µM | > 30.2 µM | 2.74 µM | – | > 100 µM | 0.923 µM | 0.318 µM | 3.63 µM | – | > 100 µM | 0.261 µM | 2.08 µM | 0.805 µM | 0.36 µM | 0.448 µM | 0.261 µM | 0.163 µM | 1.17 µM | 0.332 µM | 0.498 µM
10 | Nc1ccccc1C(=O)CCC1C(=O)NC(=S)NC1=O | > 100 µM | > 100 µM | > 100 µM | > 100 µM | > 100 µM | > 100 µM | > 100 µM | > 100 µM | > 100 µM | > 100 µM | – | – | – | – | – | – | – | – | – | –
11 | C=CCC(N[C@@H](CO)c1ccccc1)c1cn(C(=O)OCC)c2ccccc12 (stereo partly drawn) | > 100 µM | 45.8 µM | 46.8 µM | 52.3 µM | 54.5 µM | > 100 µM | 28.9 µM | > 100 µM | 66 µM | 98.4 µM | 24.1 µM | 20.4 µM | 21.9 µM | 17.9 µM | 23 µM | 34.1 µM | 14.2 µM | 25.8 µM | 22.9 µM | 30.4 µM
12 | CCN(CC)CCCC(C)N/C(=C1\C(=O)NC(=O)\C1=C(/NC(C)CCCN(CC)CC)c1cccc(OC)c1)c1cccc(OC)c1 (stereo not drawn) | 2.49 µM | 2.27 µM | 1.69 µM | 2.29 µM | 3.11 µM | 1.67 µM | 1.54 µM | 3.7 µM | 1.58 µM | 1.62 µM | 0.968 µM | 0.815 µM | 0.755 µM | 0.949 µM | 1.03 µM | 0.913 µM | 0.836 µM | 1.3 µM | 0.842 µM | 0.859 µM
13 | O=c1c(Cl)c(Cl)cnn1CCCl | 5.58 µM | 34.5 µM | 1.12 µM | > 47.1 µM | 14.1 µM | 4.99 µM | 15.2 µM | 14.6 µM | 6.58 µM | 8.25 µM | – | – | – | – | – | – | – | – | – | –
